From patent US4652642A, “Azidobenzazepines” (SmithKline Beckman Corporation, priority 1984, dated 1987)
pKi: −log10 of the molar value.

Columns and labels:
α2 sites [1] = experiment: protection against photolytic deactivation by concomitant adrenoceptor agents; assay type: binding; conditions: concomitant with the 9-azido-3-methyl-6-chloro compound, ultraviolet light
[2] = target: T1, prejunctional alpha2 (α2-adrenoceptor) (Cavia porcellus, UniProt Q60474); experiment: prejunctional alpha2-antagonist activity, isolated superfused guinea pig left atrium (clonidine concentration-response shift); assay type: cell-based; conditions: clonidine as agonist, superfused with antagonist for thirty minutes, read-out: receptor dissociation constant of the antagonist (KB)
T1 construct: The left atrium is removed, dissected free of extraneous tissue and mounted in a 2 ml superfusion chamber; from tissue; host or cells: guinea pig (male) left atrium, sympathetic nerve endings
T1 sequence (Q60474 1-464): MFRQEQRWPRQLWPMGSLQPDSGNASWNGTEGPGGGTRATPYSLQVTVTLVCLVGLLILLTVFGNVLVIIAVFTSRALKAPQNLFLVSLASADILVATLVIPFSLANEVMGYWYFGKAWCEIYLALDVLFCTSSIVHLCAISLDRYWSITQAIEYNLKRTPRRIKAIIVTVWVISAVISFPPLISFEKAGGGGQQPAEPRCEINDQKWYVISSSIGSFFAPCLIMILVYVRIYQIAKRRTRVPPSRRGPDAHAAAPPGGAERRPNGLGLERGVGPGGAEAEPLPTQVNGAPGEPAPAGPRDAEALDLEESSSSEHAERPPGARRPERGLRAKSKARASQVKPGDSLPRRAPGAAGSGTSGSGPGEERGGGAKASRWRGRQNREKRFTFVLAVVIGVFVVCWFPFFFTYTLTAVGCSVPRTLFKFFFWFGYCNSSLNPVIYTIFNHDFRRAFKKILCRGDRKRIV
Experimental: Briefly, the heart is removed from a pentobarbital-anesthetized male guinea pig. The left atrium is removed, dissected free of extraneous tissue and mounted in a 2 ml superfusion chamber. The tissue is paced at 60 pulse/minute and the sympathetic nerves excited at 6 minute intervals by field stimulation. The response to nerve stimulation is measured as the difference in contractile force between the basal contraction and peak contraction following a nerve stimulation. A concentration-response curve for clonidine (a known alpha2 -agonist) is prepared by administering increasing concentrations of clonidine following each successive stimulation. The tissue is, then, superfused with the alpha2 -antagonist to be tested for thirty minutes and the clonidine concentration-effect curve is repeated in the presence of antagonist. The receptor dissociation constant of the antagonist (KB) is defined as the antagonist concentration required to shift the log concentration-response curve of the agonist to the right by a factor of 2.
Pharmacol. 309 217-224 (1979). The preferred species of this invention, i.e. the 9-azido-3-methyl-6-chloro compound, has a KB value of 158 nM in the atrium test.

α2 sites [3] = experiment: competitive binding to α2 sites
α2 sites [4] = experiment: photolytic inactivation of α2 binding on ultraviolet irradiation

COc1cc2nc(N3CCN(C(=O)c4ccco4)CC3)nc(N)c2cc1OC [Prazosin]
effect of concomitant presence on photolytic deactivation (α2 sites [1]): no effect

CN1CCc2c(Cl)ccc(N=[N+]=[N-])c2CC1 [9-azido-3-methyl-6-chloro compound, 9-azido-6-chloro-3-methyl-2,3,4,5-tetrahydro-1H-3-benzazepine]
Kb [2]: 158 nM | mode of binding to α2 sites (α2 sites [3]; without irradiation): bind competitively | pKi (α2 sites [3]; α2 sites): 7.38 | binding effect when irradiated with ultraviolet light (α2 sites [4]): the binding effect is made irreversible | dependence of photolytic inactivation (α2 sites [4]; irradiated with ultraviolet light): concentration and time dependent

Nc1cc(Cl)c(NC2=NCCN2)c(Cl)c1 [p-aminoclonidine]
effect of concomitant presence on photolytic deactivation (α2 sites [1]): complete protection

Cc1ccc(N(CC2=NCCN2)c2cccc(O)c2)cc1 [phentolamine]
effect of concomitant presence on photolytic deactivation (α2 sites [1]): partially blocks the photolytic deactivation
